Test results reported in patent US20260132126A1, “IMIDAZOLE DERIVATIVES” (SANWA KAGAKU KENKYUSHO CO., LTD., priority 2022, published 2026).

Biological target: T1, human α1A adrenergic receptor (Homo sapiens, UniProt P35348)
T1 construct: host or cells: GeneBLAzer ADRA1A-NFAT-bla CHO-K1 cells
T1 sequence (P35348 1-466): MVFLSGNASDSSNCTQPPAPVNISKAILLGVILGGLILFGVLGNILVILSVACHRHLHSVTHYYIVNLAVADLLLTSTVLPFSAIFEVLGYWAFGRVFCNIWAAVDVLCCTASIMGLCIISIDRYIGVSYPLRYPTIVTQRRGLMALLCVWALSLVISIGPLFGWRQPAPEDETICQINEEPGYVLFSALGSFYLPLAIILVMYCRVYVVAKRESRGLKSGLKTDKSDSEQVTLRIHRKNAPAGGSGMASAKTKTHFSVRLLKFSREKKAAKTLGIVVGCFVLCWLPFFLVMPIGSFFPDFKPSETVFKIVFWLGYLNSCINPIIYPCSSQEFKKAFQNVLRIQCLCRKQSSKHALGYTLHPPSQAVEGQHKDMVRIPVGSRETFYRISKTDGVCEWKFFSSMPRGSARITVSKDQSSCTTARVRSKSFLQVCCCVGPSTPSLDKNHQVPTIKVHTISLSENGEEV
Assay: Ca2+ mobilization assay in human α1A adrenergic receptor-expressing cells
Type: cell-based
Design: Emax: dose or concentration left out as unconfirmed
Details: for Emax at 10 µM: % activation at 10 μmol/L test compound, 100 μmol/L norepinephrine = 100%, well without test compound = 0%; for EC50: CHO-K1 cells expressing human α1A adrenergic receptor, Fluo-4 fluorescence, concentration giving 50% response of Emax, 4-parameter logistic regression
Protocol: CHO-K1 cells that highly express a human α1A adrenergic receptor (GeneBLAzer™ ADRA1A-NFAT-bla CHO-K1 Cells) were purchased from Thermo Fisher Scientific, Inc., and cultured according to the instructions.
The cultured human α1A adrenergic receptor-expressing cells were washed with D-PBS, then replaced with a loading buffer (2 μmol/L Fluo-4/AM, 1× PowerLoad, 2.5 mmol/L Probenecid-containing DMEM (high-glucose)) and incubated at 37° C. for 60 minutes in a 5% CO2 incubator. The cells were detached using 0.05% trypsin-EDTA solution, and suspended in an assay buffer ([…], 0.054 mol/L KCl, 1.8 mmol/L CaCl2), 1 mmol/L MgSO4, 0.11 mol/L glucose, 0.01 mol/L NaH2PO4·2H2O, […], pH 7.3) to be 500,000 cells/mL.
Test compounds were dissolved in dimethylsulfoxide, and diluted with an assay buffer containing 0.3% BSA. The final concentrations of the test compounds were set to fall within the range of 0.1 nmol/L to 10 μmol/L. As a reference compound, norepinephrine was set to have a final concentration within the range of 0.01 nmol/L to 100 μmol/L.
On a 384-well clear bottom black plate coated with poly-D-lysine (Corning Inc.), the above-described cell-suspended solution was dispersed in 40 μL each (20,000 cells/well) and allowed to stand for 10 minutes. The plate was transferred to a fluorescent imaging plate reader (FDSS7000, Hamamatsu Photonics K.K.), and measurements were started. After 1 minute from the start of the measurements, 20 μL of the test compound solutions or norepinephrine solution (total amount: 60 μL/well) was added to each well of the plate (final concentration: 0.1% BSA, 0.1% dimethylsulfoxide), and the temporal change in fluorescence intensity of Fluo-4 was further measured for 5 minutes (Ex 480 nm/Em 540 nm).
The normalized values (% activation) were used for subsequent analyses.
Emax values and EC50 values were calculated by creating a concentration-response curve of the test compounds using a 4-parameter logistic regression with XLFit, Emax value being defined as % activation of test compound at the concentration of 10 μmol/L, and EC50 value being defined as the concentration in which 50% response of the Emax values is shown.

| Compound | Emax at 10 µM [%] | EC50 [nM] | Emax [%] |
| --- | --- | --- | --- |
| COc1n[nH]cc1-c1ccc(C)cc1NCc1c[nH]cn1 [Example 33, N-((1H-Imidazol-4-yl)methyl)-2-(3-methoxy-1H-pyrazol-4-yl)-5-methylaniline] | 97 | 3.9 | – |
| CC(Nc1ccccc1-c1cccnc1)c1c[nH]cn1 (stereo not drawn) [Example 35, N-(1-(1H-Imidazol-4-yl)ethyl)-2-(pyridin-3-yl)aniline] | 90 | 5.1 | – |
| COc1cccc(-c2ccccc2NC(C)c2c[nH]cn2)n1 (stereo not drawn) [Example 37, N-(1-(1H-imidazol-4-yl)ethyl)-2-(6-methoxypyridin-2-yl)aniline] | – | 2.1 | 109 |
| CC(Nc1ccccc1-c1cscn1)c1c[nH]cn1 (stereo not drawn) [Example 38, N-(1-(1H-imidazol-4-yl)ethyl)-2-(thiazol-4-yl)aniline] | – | 0.8 | 107 |
| c1nc(CNc2cscc2-c2ccoc2)c[nH]1 [Example 41, N-((1H-Imidazol-4-yl)methyl)-4-(furan-3-yl)thiophen-3-amine] | 92 | 3.4 | – |
| c1ncc(-c2cscc2NCc2c[nH]cn2)cn1 [Example 42] | 97 | 7.3 | – |
| c1coc(-c2ccccc2OCc2c[nH]cn2)c1 [Example 45] | 107 | 9.4 | – |
| c1csc(-c2ccccc2OCc2c[nH]cn2)c1 [Example 46] | 104 | 4.8 | – |
| c1ccc(-c2cn[nH]c2)c(OCc2c[nH]cn2)c1 [Example 47, 4-(2-((1H-imidazol-4-yl)methoxy)phenyl)-1H-pyrazole] | 95 | 9.9 | – |
| c1cncc(-c2ccccc2OCc2c[nH]cn2)c1 [Example 48] | 104 | 3 | – |
| Cc1n[nH]cc1-c1ccccc1OCc1c[nH]cn1 [Example 49] | 104 | 4.3 | – |
| COc1ncccc1-c1ccccc1OCc1c[nH]cn1 [Example 52] | 90 | 2.7 | – |
| COc1cncc(-c2ccccc2OCc2c[nH]cn2)c1 [Example 53] | 93 | 5.1 | – |
| Cc1ccc(-c2cnccc2C)c(OCc2c[nH]cn2)c1 [Example 57] | 96 | 6.1 | – |
| Cc1c(F)cncc1-c1ccccc1OCc1c[nH]cn1 [Example 60] | 90 | 3.2 | – |
| COc1ncc(F)cc1-c1ccccc1OCc1c[nH]cn1 [Example 61] | 90 | 4.5 | – |
| Cc1ncncc1-c1ccc(F)cc1OCc1c[nH]cn1 [Example 64] | 99 | 5.3 | – |

| Compound | Emax at 10 µM [%] | EC50 [nM] | Emax [%] |
| --- | --- | --- | --- |
| Cc1ccc(-c2cncnc2C)c(OCc2c[nH]cn2)c1 [Example 65] | 98 | 6.7 | – |
| c1ccc(-c2cnccn2)c(OCc2c[nH]cn2)c1 [Example 68] | – | 2.3 | 100 |
| c1ccc(-c2cncnc2)c(OCc2c[nH]cn2)c1 [Example 69] | – | 0.9 | 104 |
| c1ccc(-c2nccs2)c(OCc2c[nH]cn2)c1 [Example 70] | – | 2.4 | 93 |
| c1ccc(-c2cncs2)c(OCc2c[nH]cn2)c1 [Example 71] | – | 1.9 | 103 |
| Cc1ccncc1-c1ccccc1OCc1c[nH]cn1 [Example 72] | – | 7.4 | 106 |
| c1ccc(-c2cnccc2C2CC2)c(OCc2c[nH]cn2)c1 [Example 73] | – | 0.7 | 89 |
| COc1c(F)cncc1-c1ccccc1OCc1c[nH]cn1 [Example 74] | – | 0.5 | 96 |
| COc1ncncc1-c1ccccc1OCc1c[nH]cn1 [Example 75] | – | 0.2 | 95 |
| Cc1ncncc1-c1ccccc1OCc1c[nH]cn1 [Example 76] | – | 3.3 | 98 |
| COc1cncc(-c2ccccc2OCc2c[nH]cn2)n1 [Example 77] | – | 0.6 | 92 |
| CC(Oc1ccccc1-c1cccs1)c1c[nH]cn1 (stereo not drawn) [Example 78, 4-(1-(2-(Thiophen-2-yl)phenoxy)ethyl)-1H-imidazole] | 99 | 6.4 | – |
| c1cncc(-c2ccccc2SCc2c[nH]cn2)c1 [Example 80, 3-(2-(((1H-Imidazol-4-yl)methyl)thio)phenyl)pyridine] | 101 | 3.4 | – |
| c1ccc(-c2cn[nH]c2)c(SCc2c[nH]cn2)c1 [Example 81] | 106 | 9 | – |
| c1ccc(-c2ccsc2)c(SCc2c[nH]cn2)c1 [Example 82] | 104 | 6.9 | – |
| c1ccc(-c2cnco2)c(NCc2c[nH]cn2)c1 [compound 1, N-((1H-imidazol-4-yl)methyl)-2-(oxazol-5-yl) aniline, reference compound] | 91 | 20 | – |

More lines, in order of falling EC50, values ahead:

| Emax at 10 µM [%] | EC50 [nM] | Compound | Emax [%] |
| --- | --- | --- | --- |
| 91 | 2.4 | COc1ccncc1-c1ccc(C)cc1OCc1c[nH]cn1 [Example 62] | – |
| 108 | 2.2 | c1ccc(-c2ccsc2)c(OCc2c[nH]cn2)c1 [Example 44, 4-((2-(Thiophen-3-yl)phenoxy)methyl)-1H-imidazole] | – |
| 103 | 2.1 | c1ccc(-c2cscn2)c(OCc2c[nH]cn2)c1 [Example 67, 4-(2-((1H-Imidazol-4-yl)methoxy)phenyl)thiazole] | – |
| 102 | 1.8 | Fc1cncc(-c2ccccc2OCc2c[nH]cn2)c1 [Example 51] | – |
| 98 | 1.6 | COc1ccncc1-c1ccccc1OCc1c[nH]cn1 [Example 54] | – |
| 91 | 1.3 | COc1n[nH]cc1-c1ccc(F)cc1NCc1c[nH]cn1 [Example 34, N-((1H-imidazol-4-yl)methyl)-5-fluoro-2-(3-methoxy-1H-pyrazol-4-yl)aniline] | – |
| 96 | 1.3 | Cc1ccc(-c2cnccn2)c(OCc2c[nH]cn2)c1 [Example 66, 2-(2-((1H-Imidazol-4-yl)methoxy)-4-methylphenyl)pyrazine] | – |
| 100 | 1.1 | COc1cccc(-c2ccccc2NCc2c[nH]cn2)n1 [Example 32, N-((1H-imidazol-4-yl)methyl)-2-(6-methoxypyridin-2-yl)aniline] | – |
| 97 | 1 | Cc1n[nH]cc1-c1ccc(F)cc1OCc1c[nH]cn1 [Example 58] | – |
| 110 | 0.9 | N#Cc1n[nH]cc1-c1ccccc1OCc1c[nH]cn1 [Example 50] | – |
| 105 | 0.8 | Cc1ccc(-c2c[nH]nc2C#N)c(OCc2c[nH]cn2)c1 [Example 56] | – |
| 92 | 0.7 | COc1ccncc1-c1ccc(F)cc1OCc1c[nH]cn1 [Example 63] | – |
| 90 | 0.6 | COc1ncccc1-c1cscc1NCc1c[nH]cn1 [Example 43] | – |
| 101 | 0.6 | Cc1ccc(-c2cn[nH]c2)c(OCc2c[nH]cn2)c1 [Example 55] | – |
| 101 | 0.4 | Cc1ccc(-c2c[nH]nc2C)c(OCc2c[nH]cn2)c1 [Example 59] | – |
